# From patent US9884040B2, “Desethylamiodarone for use in cancer treatment” (PÉCSI TUDOMÁNYEGYETEM, priority 2015, dated 2018)
# Assays:
# [1] = test system: 4T1 (mouse mammary carcinoma) cells; assay: Colony formation assay, 4T1; type: cell-based; settings: one week following treatment
# Description: Desethylamiodarone (DEA) is the main metabolite of the widely used anti-arrhythmic drug amiodarone. DEA also has antiarrhythmic activity in clinical relevant concentration. […] (27, 28, 29, 30) DEA accumulates rapidly in the lungs. […] Here, we checked whether Desethylamiodarone can affect invasion, migration of cancer cells. First of all, we initially checked whether desethylamiodarone has effect on the viability of T24 (human urinary bladder carcinoma), B16F10 (mice melanoma), 4T1 (mouse mammary carcinoma) cells using MTT assay. As shown in FIG. 1-3 Desethylamiodarone had significant cytotoxic activity in very low concentrations. To assess the recovery ability of cells that survived treatment, long-term (7 days) colony formation assay was performed.
# Cells were trypsinized and plated in triplicate into 6-well plates at 500 cells/well. Cells were treated with different concentration of Dea. After 7 days of incubation, cells were washed and stained with Coomassie-blue, and the colonies containing more than 50 cells were counted. The number of colonies were determined and normalized to the number of colonies in controls.
# [2] = test system: B16F10 melanoma lung metastasis; assay: Mouse model of B16F10 lung metastasis; type: in vivo, C57BL/6 mice
# Protocol: To produce experimental metastasis model, male C57BL/6 mice (6 weeks old) were used. B16F10 cells ([…]/0.1 ml) were injected into the lateral tail vein of C57BL/6 mice, using a 30G1/2 needle and a 1-mL syringe. Mice were randomly divided into 3 groups of 6 mice each. Each mouse was given a daily intragastric injection of either 100 μl 15% ethanol solution as the vehicle control or 25 mg/kg DEA. Treatment was started 1 day before cell injection and was given every third day, lasted for consecutive 16 days Sixteen days after injection, the animals were weighed and killed. The lungs were removed, rinsed in PBS, and weighed. The lung weight index was calculated as the ratio of lung weight vs body weight. The harvested lungs were fixed in 4% formalin. Tumor foci on the surfaces of the lungs were counted under a stereomicroscope. Then, the whole lung was embedded in optimum cutting temperature compound (Sakura Finetek, SA), sectioned ([…], 5 levels), and stained with hematoxylin and eosin (H&E) according to routine protocols. […] The percentage of total area of the stained sections occupied by tumor was measured using the Panoramic viewer 1.15.4 (3[…], Hungary) Murine melanoma B16F10 cells were injected into the lateral tail vein of 6-weeks-old male C57BL/6 mice and divided into two groups (6 mice/group). […] Lungs were photographed (FIG. 9 A,B), weighted and lung weight index was calculated as the ratio of lung weight versus body weight of host mice, and was compared between the two groups. […] Metastatic nodules on lung surface were counted. […] 24 h after injection of melanoma B16F10 cells, mice in the control group were treated with vehicle (alcohol), mice in the treatment group were injected with desethylamiodarone (25 mg/kg, i.p., every 3rd day.) After 16 day's mice were sacrificed and then analyzed. […] Lung weight was determined and lung weight index was calculated (C). Tumor growth was monitored also by counting the tumor nodules (D). […] Lung tissue sections were analyzed histopathological after H & E staining. […]
# [3] = test system: HeLa human cervix adenocarcinoma cell line; assay: Radiotherapy plus DEA, colony formation, HeLa; type: cell-based; settings: 1Gy or 2Gy single dose alone or with 500 nM-3 μM DEA
# Protocol: Cells were trypsinized and plated in triplicate into 6-well plates at 500 cells/well. Cells were treated with different concentration of DEA and irradiated with a dose of 1.0 and 2.0 Grays. A telecobalt (Therathron 780 C) external irradiation equipment (average photon energy of 1.25 MeV) will be applied for irradiating cells. After 7 days of incubation, cells were washed and stained with Coomassie-blue, and the colonies containing more than 50 cells were counted. The number of colonies were determined and normalized to the number of colonies in controls.
# To examine the effects of a DEA on the effectiveness of radiotherapy the cells were treated with 1Gy or 2Gy single dose irradiation alone or combined with 500 nM-3 μM DEA.
# The cells were treated with 1Gy or 2Gy single dose irradiation alone or combined with 500 nM-3 μM DEA. Untreated cells served as controls. The results are mean±SEM of 3 independent experiments performed in at least quadruplicate. p<0.05, compared to the corresponding control group.
# [4] = test system: p42/44 mitogen-activated protein kinase (MAPK) (ERK1/2); assay: Western blot of ERK phosphorylation; type: cell-based, human; settings: 5-10-15 μM, 6 hours; T24, B16F10 cell lines
# Protocol: 10^6 cells were seeded into regular plates and treated as for the cell viability assay. Cells were harvested at intervals in a chilled lysis buffer containing 0.5 mM sodium-metavanadate, 1 mM ethylenediaminetetraacetic acid (EDTA) and protease inhibitor cocktail in phosphate-buffered saline (PBS). Probes were boiled and subjected to 10% sodium dodecyl sulphate polyacrylamide gel electrophoresis then transferred to nitrocellulose membranes. The membranes were blocked in 5% low fat milk for 1.5 h at room temperature then exposed to primary antibodies at 4° C. overnight in blocking solution. Appropriate horseradish peroxidase-conjugated secondary antibodies were used at a 1:5000 dilution (anti-mouse and anti-rabbit IgGs; Sigma-Aldrich, Steinheim, Germany) and visualized by enhanced chemiluminescence (Amersham Biosciences, Piscataway, N.J., USA). All experiments were repeated 3 times.
# To determine the downstream consequences of DEA treatment, we examined the phosphorylation status of AKT (protein kinase B), GSK-3β and p42/44 mitogen-activated protein kinase (MAPK) (ERK1/2) by immunoblotting in T24 (human urinary bladder carcinoma), B16F10 (mice melanoma) cell lines. Cells were cultured in the presence of 5-10-15 μM DEA for 6 hours. The cells were prepared and western blot analysis was carried out to perform both phosphorylated and non-phosphorylated forms of the previously listed proteins. […]
# [5] = 25 mg/kg i.p. every 3rd day, day 16, B16F10 tail vein injection
smiles,measurement,setting,value
"CCCCc1oc2ccccc2c1C(=O)c1cc(I)c(OCCNCC)c(I)c1 [DEA, (2-butyl-3-benzofuranyl)[4-[2-(ethylamino)ethoxy]-3,5-diiodophenyl]-methanone]","Colony formation, 4T1",[1],significant decrease in the number and the size of colonies
same,Lung weight index (lung weight versus body weight),[2]; [5],significantly *P<0.001 inhibited lung weight increase
same,Number of tumor nodules on lung surface,[2]; [5],dramatically decrease in the number of tumor nodules
same,Percentage of tumor area over lung section area (H&E),"[2]; 25 mg/kg/3 days, n=6 per group",significantly decreased
same,"Radiosensitization, colony formation, HeLa",[3],sensitize cervix cancer to irradiation
same,ERK phosphorylation,[4],a decrease in its phosphorylation
